From patent publication US20040018562A1, “Receptor detection” (priority 2002, published 2004)

How the values were obtained:
[1] = system: membrane protein from CHO-M1; test: Binding of enzyme donor-GTP gamma-S conjugate to membrane protein (open/close readings); conditions: 1 hr
Protocol: 20 ul of membrane protein (10 ug from CHO-M1) in a binding buffer (50 mM HEPES, 20 mM NaCl, 10 mM MgCl2, with 1 mM DTT or 0.01% CHAPS) was incubated with 10 ul of enzyme donor-GTP gamma-S conjugate at various concentrations for 60 minutes at ambient temperature. 10 ul of enzyme acceptor (0.18 uM) and 15 ul of the chemiluminescent reagent, Galacton Star with Emerald plus (Applied Biosystems, Foster city, Calif.) added and the microtiter plate read on the Lumicount (Packard, Meridien, Conn.). The readings are tabulated below with ED46 mer used as control. Open and Close refer to free and bound enzyme donor conjugate to enzyme acceptor. Percentage inhibition is calculated by (open-close)/open readings.

[2] = system: membrane protein from CHO-M1; test: Modulation of enzyme donor-GTP gamma-S conjugate inhibition by GTP gamma-S; type: binding; conditions: 1 hr; for % I: absence of GTP-gamma-S; for GTP-r-S (reading): membrane preincubated with GTP gamma-S
Protocol: In order to test if the inhibition was capable of being modulated. The experiments were performed by incubating the membrane preparation with GTPgamma-S (10 ul of 10 uM). Higher concentrations of enzyme donor together with another detergent saponin were tried to enhance signal and minimize non-specific binding.
10 ul of membrane protein (10 ug from CHO-M1) in a binding buffer (50 mM HEPES, 20 mM NaCl, 10 mM MgCl2, with 0.01% CHAPS or 0.01% saponin) was incubated with 10 ul of GTP gamma-S for 30 minutes at room temperature 10 ul of the enzyme donor conjugate at various concentrations was added and the mixture incubated for 60 minutes at ambient temperature. 10 ul of enzyme acceptor (0.45 uM) and 15 ul of the chemiluminescent reagent, Galacton Star with Emerald plus (Applied Biosystems, Foster city, Calif.) added and the microtiter plate read on the Lumicount (Packard, Meridien, Conn.). The readings are tabulated below with ED46 mer used as control. Open and close refer to free and bound enzyme donor conjugate to enzyme acceptor. Percentage inhibition is calculated by (open-close)/open readings and is in the absence of GTP-gamma-S.

[3] = Buffer with 0.01% CHAPS, 0.5 nM
[4] = Buffer with 0.01% Saponin, 0.5 nM
[5] = Buffer with 0.01% Saponin, 5 nM
[6] = Buffer with 0.01% Saponin, 10 nM
[7] = Buffer with 0.01% Saponin, 25 nM
[8] = Buffer with 0.01% Saponin, 50 nM

For “SLAVVLQRRDWENPGVTQLNKLAAHPPFASWRNSEEARTDCPSQQL [45+1 mer, 46 mer enzyme donor fragment]”, the “% I” value ([1]; Binding buffer wCHAPS, 0.1 nM) was 10.0%, the close ([1]; Binding buffer wCHAPS, 0.1 nM) was 1706 and the open ([1]; Binding buffer wCHAPS, 0.1 nM) was 1895. The “% I” value ([1]; Binding buffer wCHAPS, 0.5 nM) was 3.9%, the close ([1]; Binding buffer wCHAPS, 0.5 nM) was 1846 and the open ([1]; Binding buffer wCHAPS, 0.5 nM) was 1921. For the same sequence, the “% I” value ([1]; Binding buffer wCHAPS, 5 nM) was 1.7%, the close ([1]; Binding buffer wCHAPS, 5 nM) was 3383 and the open ([1]; Binding buffer wCHAPS, 5 nM) was 3442. The “% I” value ([1]; Binding buffer wCHAPS, 10 nM) was 6.0%, the close ([1]; Binding buffer wCHAPS, 10 nM) was 5017 and the open ([1]; Binding buffer wCHAPS, 10 nM) was 5339. The “% I” value ([1]; Binding buffer wDTT, 0.1 nM) was 16.8%, the close ([1]; Binding buffer wDTT, 0.1 nM) was 1357 and the open ([1]; Binding buffer wDTT, 0.1 nM) was 1632. The “% I” value ([1]; Binding buffer wDTT, 0.5 nM) was 15.2%, the close ([1]; Binding buffer wDTT, 0.5 nM) was 1338 and the open ([1]; Binding buffer wDTT, 0.5 nM) was 1579. For the same sequence, the “% I” value ([1]; Binding buffer wDTT, 5 nM) was 6.8%, the close ([1]; Binding buffer wDTT, 5 nM) was 2372 and the open ([1]; Binding buffer wDTT, 5 nM) was 2544. For the same sequence, the “% I” value ([1]; Binding buffer wDTT, 10 nM) was 12.6%, the close ([1]; Binding buffer wDTT, 10 nM) was 3502 and the open ([1]; Binding buffer wDTT, 10 nM) was 4006. For the same sequence, the “% I” value ([1]; Binding buffer, 0.1 nM) was 5.8%, the close ([1]; Binding buffer, 0.1 nM) was 1773 and the open ([1]; Binding buffer, 0.1 nM) was 1882. For the same sequence, the “% I” value ([1]; Binding buffer, 0.5 nM) was −2.3%, the close ([1]; Binding buffer, 0.5 nM) was 1940 and the open ([1]; Binding buffer, 0.5 nM) was 1896. For the same sequence, the “% I” value ([1]; Binding buffer, 5 nM) was −1.1%, the close ([1]; Binding buffer, 5 nM) was 2952 and the open ([1]; Binding buffer, 5 nM) was 2921. The “% I” value ([1]; Binding buffer, 10 nM) was 6.7%, the close ([1]; Binding buffer, 10 nM) was 4176 and the open ([1]; Binding buffer, 10 nM) was 4474. The “% M” value [2, 3] was −1.6%, the close [2, 3] was 353 and the open [2, 3] was 322. For the same sequence, the “% I” value [2, 3] was −9.7%, the “GTP-r-S (reading)” value [2, 3] was 348 and the “% M” value ([2]; Buffer with 0.01% CHAPS, 5 nM) was 10.2%. For the same sequence, the close ([2]; Buffer with 0.01% CHAPS, 5 nM) was 1318, the open ([2]; Buffer with 0.01% CHAPS, 5 nM) was 1214 and the “% I” value ([2]; Buffer with 0.01% CHAPS, 5 nM) was −8.6%. For the same sequence, the “GTP-r-S (reading)” value ([2]; Buffer with 0.01% CHAPS, 5 nM) was 1468, the “% M” value ([2]; Buffer with 0.01% CHAPS, 10 nM) was 6.1% and the close ([2]; Buffer with 0.01% CHAPS, 10 nM) was 3265. The open ([2]; Buffer with 0.01% CHAPS, 10 nM) was 2971, the “% I” value ([2]; Buffer with 0.01% CHAPS, 10 nM) was −9.9% and the “GTP-r-S (reading)” value ([2]; Buffer with 0.01% CHAPS, 10 nM) was 3478. The “% M” value ([2]; Buffer with 0.01% CHAPS, 25 nM) was −1.4%, the close ([2]; Buffer with 0.01% CHAPS, 25 nM) was 10782 and the open ([2]; Buffer with 0.01% CHAPS, 25 nM) was 8526. The “% I” value ([2]; Buffer with 0.01% CHAPS, 25 nM) was −26.5%, the “GTP-r-S (reading)” value ([2]; Buffer with 0.01% CHAPS, 25 nM) was 10634 and the “% M” value ([2]; Buffer with 0.01% CHAPS, 50 nM) was 4.5%. The close ([2]; Buffer with 0.01% CHAPS, 50 nM) was 18587, the open ([2]; Buffer with 0.01% CHAPS, 50 nM) was 17367 and the “% I” value ([2]; Buffer with 0.01% CHAPS, 50 nM) was −7.0%. The “GTP-r-S (reading)” value ([2]; Buffer with 0.01% CHAPS, 50 nM) was 19466, the “% M” value [2, 4] was 19.6% and the close [2, 4] was 228. The open [2, 4] was 215, the “% I” value [2, 4] was −6.4% and the “GTP-r-S (reading)” value [2, 4] was 284. The “% M” value [2, 5] was 20.2%, the close [2, 5] was 827 and the open [2, 5] was 763. For the same sequence, the “% I” value [2, 5] was −8.3%, the “GTP-r-S (reading)” value [2, 5] was 1035 and the “% M” value [2, 6] was 11.6%. The close [2, 6] was 2220, the open [2, 6] was 2103 and the “% I” value [2, 6] was −5.6%. For the same sequence, the “GTP-r-S (reading)” value [2, 6] was 2510, the “% M” value [2, 7] was 10.5% and the close [2, 7] was 6971. The open [2, 7] was 6600, the “% I” value [2, 7] was −5.6% and the “GTP-r-S (reading)” value [2, 7] was 7790. For the same sequence, the “% M” value [2, 8] was 8.9%, the close [2, 8] was 13597 and the open [2, 8] was 13133. The “% I” value [2, 8] was −3.5% and the “GTP-r-S (reading)” value [2, 8] was 14932.
